From patent publication US11147796B2, “Agent for preventing or ameliorating hearing impairment” (Tohoku University, priority 2017, dated 2021)

Key:
outer hair cells = assay: Survival rate of outer hair cells in cultured inner ear with cisplatin; type: cell-based, C57BL/6J mouse; settings: 48 hours
Experimental: (§1) In the following Examples 2, 3, and 5, “m.1555A>G mutant” cells were obtained by skin reproductive to a patient having “m.1555A>G mutation” to obtain dermal fibroblasts, then 10% Primary culture was carried out in DMEM (low glucose) culture solution (manufactured by Nacalai Tesque, Inc) containing FBS (Fetal bovine serum) under the condition of 5% CO2/20% O2, at 37° C. and isolated. In the following Examples 4 and 5, the inner ear culture was carried out in DMEM (high glucose) culture medium containing 10% FBS (Fetal bovine serum) under the condition of 5% CO2/20% O2, at 37° C.
(§2) [1] The inner ear of C57BL/6J mouse (hereinafter referred to as “P3 mouse”) on the third day after birth was isolated and cultured in a culture solution for 24 hours.
(§3) [2] […] Thereafter, washing with TBS (TBST) solution containing 0.3% Triton X-100 for 5 minutes was repeated twice, followed by taking photograph with a fluorescence microscope (BZ-9000, manufactured by Keyence) and observed using BZ-H1 software (manufactured by Keyence). From the obtained image, the number of cells and the number of damaged cells, each of which has a shape of 200 μm each corresponding to each part of the apex turn, the media turn, and the basilar turn, were measured and 3 parts of the cochlea (apex, media, basilar) were calculated from the survival rate (%) of the outer hair cells and the inner hair cells. […]

inner hair cells = assay: Survival rate of inner hair cells in cultured inner ear with cisplatin; type: cell-based, C57BL/6J mouse; settings: 48 hours
Experimental: as §1, §2, §3

[1] = test system: skin cells derived from hearing loss patients attributable to other inherited diseases; assay: Amount of ATP production in skin cells of patients with other inherited diseases; type: cell-based, human; settings: POU4F3 gene mutation, MELAS [m.3243A>G mutation], Alport syndrome
[2] = test system: wild-type male mice (C57BL/6) exposed to strong sound; assay: Hearing ability by ABR after strong acoustic exposure; type: in vivo, mouse; settings: vs non-administration group
Experimental: Ndufs 4 KO mice (mutant mice due to the substitution of the second exon of the Ndufs 4 gene with Neo sandwiched between loxP sequences) were purchased from Jacson Laboratory. The genetic background of the mouse was C57BL/6, and 60 days old (body weight 10 to 13 g) was used. Compound #5 (1 mg/kg body weight/day) synthesized in Example 1 was orally administered to Ndufs 4 KO mice (administration group of Ndufs 4 KO mice, n=5), between 28 and 60 days of age, at 60 days of age, the hearing ability of the compound #5 administration group was evaluated by auditory brainstem response (ABR). As a control, the hearing ability of Nudfs 4 KO mice not received compound #5 (non-administration group of Ndufs 4 KO mice, n=4), wild type mice not received compound #5 (non-administration group of wild type mice, n=3) and Ndufs 4 hetero KO mice not received compound N #5 (non-administration group of Ndufs 4 hetero KO mice, n=4) was assessed by ABR at 60 days of age. In measuring the hearing ability, a mixture of ketamine (100 mg/kg body weight) and xylazine (20 mg/kg body weight) were anesthetized by intraperitoneal injection of mice. ABR was also analyzed using TDT System 3 workstation and BioSigRP software (Tucker-Davis Technologies). The averaging (1000 times) of the evoked response to the tone burst sound of each frequency (4, 8, 12, 16, and 32 kHz) was recorded. Stimuli sounds were presented at 5 dB intervals from each frequency, 100 dB SPL (Sound Pressure Level) to 10 dB SPL. The threshold value of ABR was set as the minimum sound pressure threshold value at which at least one waveform was confirmed with reproducibility.
Six male wild-type male mice (C57BL/6) were inoculated into each of three groups (non-administration group of wild type mice, administration (1) group of wild type mice and administration (10) group of wild type mice). Compound #5 (1 mg/kg body weight/day) was orally administered to the administration (1) group of wild type mice for 1 week, compound group #5 (10 mg/kg body weight/day) for 1 week. Compound #5 was not administered to the non-administration group of wild-type mice. After oral administration for 1 week, each group of mice was placed in a chamber for strong acoustic exposure in an awake state, and octave band noise of sound pressure level 100 dB SPL, 8 to 16 kHz was exposed for 2 hours. Noise was generated with a noise generator (SF-06, Random Noise Generator; manufactured by RION), then amplified with an amplifier (D-75A; manufactured by Crown), and the audio was filtered with an audio filter (Multifunction Filter; manufactured by NF Corporation). The frequency band was set and outputted by a speaker (2446H; manufactured by JBL) attached to the center of the ceiling in the chamber. The sound pressure level was measured and confirmed with a sound pressure measuring device (2250L; manufactured by Bruel & Kjar) for each experiment. Hearing power was evaluated by ABR according to the method described in item “6-1” of Example 6 before strong-acoustic exposure and 4 hours after exposure.

[3] = cisplatin 10 μM, compound 0, 1, 5, 10, 50 μM
[4] = 1 mg/kg body weight/day oral for 1 week
[5] = 10 mg/kg body weight/day oral for 1 week

## O=C(CC(C(=O)O)c1c[nH]c2ccccc12)c1ccc(F)cc1F (stereo not shown) [compound #5, 4-(2,4-Difluorophenyl)-2-(1H-indol-3-yl)-4-oxo-butanoic Acid]
Outer hair cells; [3]
  survival rate of the outer hair cells: increases in a concentration-dependent manner
Outer hair cells; compound 10 μM, cisplatin 0, 5, 7.5, 10, 15, 20 μM, apex, media, basilar
  survival rate of the outer hair cells: increased as compared with the DMSO-treated group
Inner hair cells; [3]
  survival rate of the inner hair cells: almost no change in survival rate
Inner hair cells; compound 10 μM, cisplatin 0, 5, 7.5, 10, 15, 20 μM, vs DMSO-treated group
  survival rate of the inner hair cells: hardly any difference
[1]
  amount of ATP production: confirmed
[2]; [4]
  ABR threshold change before and after strong acoustic exposure: decreased
  ABR threshold value after 4 hours of strong acoustic exposure: lower
[2]; [5]
  ABR threshold change before and after strong acoustic exposure: decreased
  ABR threshold value after 4 hours of strong acoustic exposure: lower
[2]; 1 and 10 mg/kg body weight/day oral for 1 week
  ABR threshold values before strong acoustic exposure: no difference
